From patent US4342762A, “Basic ethers and pharmaceutical compositions containing the same” (Egyt Gyogyszervegyeszeti Gyar, priority 1979, dated 1982)

How the values were obtained:
mice = test: potentiating of hexobarbital-narcosis (Kaergaard); format: in vivo; details: for ED50: Mus musculus, iv, 40 mg/kg hexobarbital i.v., positive: sleeping period at least 2.5 times control; for Potentiating of narcosis Th.I.: therapeutic index
Protocol: (§1) The effect on the inhibition of the oriental activity (inhibition of the motility) was investigated on white mice in a Dews apparatus applied with 8 canals by the method of Borsy [Borsy, J., Csanyi, E., Lazar, I., Arc. Int. Pharmacodyn. 124, 1-2 (1960)]. After an oral pretreatment of 30 minutes the number of light-interruptions due to the movements of groups consisting of 3-3 mice was registered. The observation lasted for 30 minutes. The effect of the compounds exerted on the duration of hexobarbital-narcosis was tested by the method of Kaergaard [Kaergaard, N. C., Magnussen, M. P., Kampmann, E., Frey, H. H., Arc. Int. Pharmacodyn. 2, 170; (1967)]. Groups of animals consisting of 6-6 mice were treated.

[1] = acute oral toxicity, graphic method of Litchfield-Wilcoxon, 4 days observation; details: mouse, in vivo
Protocol: The analgesic effect of the new compounds according to the invention was determined by the method of Wirth et al. (Wirth, W., Gosswald, R., Horlein. K., Risse, Kl. H., Kreiskott, H.: Arch. Int. Pharmacodyn. 115, 1; (1958)). 0.4 ml of 0.5% acetic acid was administered i.p. to white mice, and the characteristic "writhing" reactions were counted after 5 minutes. […] The results are given in Table I. The toxicity data determined on white mice of both sexes weighing 18-24 g belonging to the strain CFLP are also given. Administration was effected with an oral dose of 20 ml/kg. After treatment the animals were kept under observation for 4 days. The toxicity data (LD50 mg/kg) were determined by the graphic method of Litchfield-Wilcoxon [Litchfield, J.T., Wilcoxon, E. W., J Pharmacol. Exp. Therap. 96, 99; (1949)].

white mice [2] = test: inhibition of maximal electroshock (MES) (Swinyard et al.); format: in vivo; details: for ED50: Mus musculus, oral, 1 hour before electroshock 50 Hz, 45 mA, 0.4 sec, total inhibition of tonic extensor convulsion; for Inhibition of MES Th. I.: therapeutic index
Protocol: (§2) The antiepileptic effect was investigated on white mice, after oral administration. The inhibition of maximal electroshock (MES) was determined by the method of Swinyard et al. [Swinyard et al. J. Pharmacol. Exp. Ther. 106, 319-330 (1952)]. White mice weighing 20-25 g were subjected to electric shock through corneal electrodes (Parameters: 50 Hz, 45 mA, 0.4 sec.). The total inhibition of the tonic extensor convulsion was considered as criterion of the anti-convulsive effect. The test-substance had been orally administered one hour before the electroshock. The inhibition of pentetrazole convulsion was determined on white mice by the modified method of Banziger and Hane [Banziger, R., Hane, L.D. Arch. Int. Pharmacodyn. 167, 245-249; (1967)]. I." stands for "therapeutic index."

white mice [3] = test: inhibition of pentetrazole convulsion (modified Banziger and Hane); format: in vivo; details: for ED50: Mus musculus, oral; for Inhibition of pentetrazole convulsion Th. I.: therapeutic index
Protocol: as §2

white mice [4] = test: inhibition of motility, Dews apparatus (Borsy); format: in vivo; details: for ED50: Mus musculus, oral pretreatment 30 minutes, observation 30 minutes; for Inhibition of motility Th.I.: therapeutic index
Protocol: as §1

white mice [5] = test: analgesic effect, inhibition of acetic acid "writhing" reactions (Wirth et al.); format: in vivo; details: for ED50: Mus musculus, read-out: Analgesic effect ED50; for Analgesic effect Therap.index: therapeutic index
Protocol: The analgesic effect of the new compounds according to the invention was determined by the method of Wirth et al. (Wirth, W., Gosswald, R., Horlein. K., Risse, Kl. H., Kreiskott, H.: Arch. Int. Pharmacodyn. 115, 1; (1958)). 0.4 ml of 0.5% acetic acid was administered i.p. to white mice, and the characteristic "writhing" reactions were counted after 5 minutes. The compounds to be tested had been orally administered an hour before the administration of the acetic acid. The activity is expressed as a percentage of the inhibition referred to the data observed on the control group. The results are given in Table I. The toxicity data determined on white mice of both sexes weighing 18-24 g belonging to the strain CFLP are also given. Administration was effected with an oral dose of 20 ml/kg. After treatment the animals were kept under observation for 4 days. The toxicity data (LD50 mg/kg) were determined by the graphic method of Litchfield-Wilcoxon [Litchfield, J.T., Wilcoxon, E. W., J Pharmacol. Exp. Therap. 96, 99; (1949)].

white mice [6] = test: inhibition of nicotine-lethality (Stone); format: in vivo; details: for ED50: Mus musculus, oral, 1 hour before 1.4 mg/kg nicotine
Protocol: The inhibition of nicotine-lethality was determined on white mice by the method of Stone [Stone, C. A., Mecklenburg, K. L., Torchiana, M. L., Arch. Int. Pharmacodyn.

[7] = oral, 20 ml/kg, both sexes 18-24 g, 4 days observation
[8] = oral, 1 hour before i.p. 0.4 ml 0.5% acetic acid

SMILES	ED50 (mice) [mg/kg]	Potentiating of narcosis Th.I. (mice)	LD50 at 96 h [1, 7] [mg/kg]	ED50 (white mice [2]) [mg/kg]	Inhibition of MES Th. I. (white mice [2])	ED50 (white mice [3]) [mg/kg]	Inhibition of pentetrazole convulsion Th. I. (white mice [3])	ED50 (white mice [4]) [mg/kg]	Inhibition of motility Th.I. (white mice [4])	ED50 (white mice [5]; [8]) [mg/kg]	Analgesic effect Therap.index (white mice [5])	LD50 at 96 h ([1]; po) [mg/kg]	ED50 (white mice [6]) [mg/kg]	Inhibition of nicotine-lethality Therapeutic index (white mice [6])	ED50 (white mice [5]; po) [mg/kg]
CCN(CC)CCCOC1(Cc2ccccc2)CC2CCC1(C)C2(C)C (racemic) [Example 6, (±)-2-benzyl-2-(3'-diethylaminopropoxy)-1,7,7-trimethyl-bicyclo(2,2,1)heptane]	80	25.0	2000	120	16.7	54	37.0	100	20.0	50	40.0	–	–	–	–
CC(C)N(CCCOC1(Cc2ccccc2)CC2CCC1(C)C2(C)C)C(C)C (racemic) [Example 5, (±)-2-benzyl-2-(3'-diisopropylaminopropoxy)-1,7,7-trimethyl-bicyclo(2,2,1)heptane]	120	16.7	2000	380	5.3	140	14.3	190	10.5	100	20.0	–	–	–	–
CC1(C)C2CCC1(C)C(Cc1ccccc1)(OCCCN1CCN(Cc3ccccc3)CC1)C2 (racemic) [Example 4]	–	–	2000	–	–	–	–	–	–	200	10.0	–	–	–	–
COc1ccc(C2(OCCCN(C)C)CC3CCC2(C)C3(C)C)cc1 (racemic) [Example 22, (±)-2-(p-methoxyphenyl)-2-(3'-dimethylaminopropoxy)-1,7,7-trimethyl-bicyclo(2,2,1)heptane]	80	12.5	1000	–	–	96	10.4	100	10.0	72	13.8	–	–	–	–
CN(C)CCCOC1(c2cccs2)CC2CCC1(C)C2(C)C (racemic) [Example 18, (±)-2-(3'-dimethylaminopropoxy)-2-(2"-thienyl)-1,7,7-trimethyl-bicyclo(2,2,1)heptane]	–	–	–	–	–	–	–	–	–	140	10.0	1400	–	–	–
CCN(CC)CCCOC1(c2cccs2)CC2CCC1(C)C2(C)C (racemic) [Example 19, (±)-2-(3'-diethylaminopropoxy)-2-(2"-thienyl)-1,7,7-trimethyl-bicyclo(2,2,1)heptane]	50	20.0	–	–	–	–	–	–	–	120	8.3	1000	–	–	–
OC(CCN1CCCCC1)(c1ccccc1)C1CCCCC1 (stereo not drawn) [Trihexyphenidyl, α-Cyclohexyl-α-phenyl-1-piperidine-propanol, reference compound]	–	–	–	–	–	–	–	–	–	–	–	–	40	9.13	–
CCN(CC)CCCOC1(c2ccccc2)CC2CCC1(C)C2(C)C (racemic) [Example 16, (±)-2-(3-diethylaminopropoxy)-2-phenyl-1,7,7-trimethyl-bicyclo(2,2,1)heptane]	20	35.0	700	30	23.3	60	11.7	–	–	70	10.0	–	–	–	–
CCN(CC)CCOC1(Cc2ccc(Cl)cc2)CC2CCC1(C)C2(C)C (racemic) [Example 12]	200	10.0	2000	72	27.7	110	18.2	–	–	100	20.0	–	–	–	–
CN(C)CCOC1(c2ccccc2)CC2CCC1(C)C2(C)C (racemic) [Example 15, (±)-2-(2'-dimethylaminoethoxy)-2-phenyl-1,7,7-trimethyl-bicyclo(2,2,1)heptane]	40	22.5	900	–	–	–	–	–	–	–	39.0	–	30	30.0	23
CC(=O)Nc1ccc(O)cc1 [Paracetamole, N-(4-Hydroxyphenyl)-acetamide, reference compound]	–	–	–	–	–	–	–	–	–	180	–	–	–	–	–
CC(C)N(CCOC1(Cc2ccccc2)CC2CCC1(C)C2(C)C)C(C)C (racemic) [Example 3, (±)-2-benzyl-2-(2'-diisopropylaminoethoxy)-1,7,7-trimethyl-bicyclo(2,2,1) heptane]	120	10.4	1250	–	–	–	–	–	–	120	10.4	–	–	–	–
CN(C)CCCOC1(c2ccccc2)CC2CCC1(C)C2(C)C (racemic) [Example 14, (±)-2-(3'-dimethylaminopropoxy)-2-phenyl-1,7,7-trimethyl-bicyclo(2,2,1)heptane]	64	15.6	1000	–	–	–	–	38	26.3	50	20.0	–	–	–	–
CN(C)CCCOC1(Cc2ccc(Cl)cc2)CC2CCC1(C)C2(C)C (racemic) [Example 11, (±)-2-(p-chloro-benzyl)-2-(3'-dimethylaminopropoxy)-1,7,7-trimethyl-bicyclo(2,2,1)heptane]	130	11.5	1500	–	–	–	–	130	11.5	75	20.0	–	–	–	–
CCN(CC)CCOC1(c2cccs2)CC2CCC1(C)C2(C)C (racemic) [Example 17, (±)-2-(2'-diethylaminoethoxy)-2-(2"-thienyl)-1,7,7-trimethyl-bicyclo(2,2,1)heptane]	–	–	980	–	–	60	16.3	–	–	–	19.6	–	50	–	50
CC(COC1(c2ccc(Cl)cc2)CC2CCC1(C)C2(C)C)CN(C)C (single isomer, unassigned; (+)) [Example 13, (+)-2-[(3'-dimethylamino-2'-methyl)-propoxy]-2-(p-chloro-phenyl)-1,7,7-trimethyl-bicyclo(2,2,1)heptane]	–	–	–	140	14.3	140	14.3	170	11.8	200	10.0	2000	–	–	–
CN1C(=O)OC(C)(C)C1=O [Trimethadion, 3,5,5-Trimethyl-2,4-oxazolidinedione, reference compound]	–	–	–	4.9	4.3	400	5.3	–	–	–	–	–	–	–	–
